# From patent US20250275976A1, “Methods of Treating Neuroinflammatory Conditions” (Athira Pharma, Inc., priority 2022, published 2025)
# “Also recorded” adds a separate entry of the source. Read-outs that look alike come from different tables or passages of the source. Square brackets hold non-standard residues; d marks the D form. Peptide text beside a SMILES is read from it. * marks the point of attachment. Hexanoyl = CCCCCC(=O)*; Ahx = NCCCCCC(=O)O
# Experiments:
# male CD-1 mice = assay: T-maze spontaneous alternation, LPS-induced cognitive deficit; format: in vivo, mouse; details: for Spontaneous alternation (%) Mean: LPS 250 μg/kg i.p.; for Recovery (%): saline/vehicle = 100%, LPS/vehicle = 0%
# Text: Encephalitis refers to inflammation of the brain that may result in brain swelling fever, headache, confusion, and seizures. The source of neuroinflammation can vary widely, including due to viral, bacterial, parasitic, or fungal infection or due to autoimmune diseases. Lipopolysaccharide (LPS) is a bacterial endotoxin that induces an intense neuroinflammatory reaction and has been associated with cognitive decline. The ability of Compound A19 to reverse cognitive decline induced by LPS in a mouse model of encephalitis was studied using a T-maze assay. In a separate substantially similar assay, Compounds 1a and 5a were also assessed.
# Spontaneous and continuous alternation is the innate tendency of rodents to alternate free choices in a T-maze (T-CAT) over a series of successive runs. This sequential procedure relies on working memory and is sensitive to various pharmacological manipulations affecting memory processes. The present studies were conducted to evaluate the abilities of Compound A19, Compound 1a and Compound 5a to reverse LPS-induced cognitive deficit in the T-maze assay.
# Compound A19 was dissolved in 0.9% NaCl (saline) and vortexed periodically until complete dissolution and with the pH adjusted between 7.4 and 7.8. Compound A19 was used in concentrations of 0.125, 0.1, 0.05, 0.025 and 0.0125 mg/ml which when given in a volume of 10 ml/kg result in doses of 1.25, 1, 0.5, 0.25 and 0.125 mg/kg, respectively. Compound 1a was dissolved at 160 mg/ml in 100% DMSO and vortexed until complete dissolution. Then the above stock solution was diluted in 20% PEG-400 and 78% 0.9% NaCl, whereby the stock solution comprised 2% of the final solution. Compound 1a was used in concentrations of 0.05, 0.2, 0.8, 1.6 and 3.2 mg/ml which when given in a volume of 10 ml/kg result in doses of 0.5, 2, 8, 16 and 32 mg/kg, respectively. Compound 5a was dissolved at 100 mg/ml in 100% DMSO and vortexed until complete dissolution. Then the above stock solution was diluted in 20% PEG-400 and 78% 0.9% NaCl, whereby the stock solution comprised 2% of the final solution. Compound 5a was used in concentrations of 0.125, 0.25, 0.5, 1 and 2 mg/ml which when given in a volume of 10 ml/kg result in doses of 1.25, 2.5, 5, 10 and 20 mg/kg, respectively.
# Memantine was dissolved in saline. Memantine was used in concentration of 0.1 and 0.01 mg/ml, which when given in a volume of 10 ml/kg result in a dose of 1 and 0.1 mg/kg, respectively. Memantine is approved for symptomatic treatment of Alzheimer's disease was used as a reference compound.
# LPS was dissolved in saline and prepared at a concentration of 0.0125 mg/ml and given intraperitoneally (i.p.) at a dosage volume of 20 ml/kg to yield a dose of 0.25 mg/kg ([…]).
# Four to five weeks old male CD-1 mice (Janvier; Le Genest St Isle - France) were used for the study.
# LPS was injected i.p. 2 weeks prior the T-maze trial. Compound 1a was tested at doses of 0.5, 2, 8, 16, and 32 mg/kg administered orally (p.o.) for 14 days with last treatment given 60 min before the T-maze trial. Compound 5a was tested at the doses of 1.25, 2.5, 5, 10, and 20 mg/kg administered orally (p.o.) for 14 days with last treatment given 60 min before the T-maze trial. LPS was injected i.p. 2 weeks prior the T-maze trial.
# The T-maze apparatus was made of gray Plexiglas with a main stem (55 cm long×10 cm wide×20 cm high) and two arms (30 cm long×10 cm wide×20 cm high) positioned at a 90-degree angle relative to the main stem. A start box (15 cm long×10 cm wide) was separated from the main stem by a guillotine door. Horizontal doors were also provided to close specific arms during the force choice alternation task.
# The experimental protocol consisted of a single session, which started with one “forced-choice” trial, followed by 14 “free-choice” trials. In the “forced-choice” trial, the animal was confined 5 seconds in the start arm and was then released while either the left or right goal arm was blocked by a horizontal door. […]
# [1] = tested on: Rat primary cortical neuron cultures; details: LPS 24 h
# [2] = tested on: Rat primary cortical neuron cultures; assay: Neuroprotection of rat primary cortical neurons against neurotoxic insults (Cell Titer-Glo viability); format: cell-based
# Text: HGF/MET signaling activation is expected to protect cells, including neurons, from cell death. […] Hydrogen peroxide (H2O2) treatment produces toxic oxidative stress. Bacteria-derived lipopolysaccharide (LPS) treatment induces inflammatory cell death. Treatment with excess glutamate (Glut) produces excitotoxicity in neuron cultures. Treatment with 1-methyl-4-phenylpyridinium (MPP^+) causes cell death by inhibition of mitochondrial function.
# Cells were then subjected to individual conditional insults for 24 hours at the following concentrations: H2O2 at 1 uM, LPS at 1 uM, glutamate at 25 uM, or MPP+ at 500 uM. All treatments contained recombinant human HGF (R&D Systems) at a concentration of 5 ng/ml. MK-801 (Dizocilpine) is a pore blocker of the N-Methyl-D-aspartate (NMDA) receptor, a glutamate receptor, and was used as a positive control.
# Data was normalized to DMSO+HGF control set at 100% cell viability.
# Data are reported as statistical significance vs. insult control, with NS=not significant, +=p<0.05, ++=p<0.01, and +++=p<0.001.
structure (smiles),measurement,setting,value
CCC(C)CN1CC2N(Cc3ccc(C(F)(F)F)cc3)CCC(=O)N2[C@@H](C)C1=O (some centres unmarked) [Compound 5a],Reversal of LPS-induced cognitive deficit in T-maze (result in words),"male CD-1 mice; ANOVA, Fisher's PLSD, p<0.05, doses as in the value",significant reversal of LPS-induced cognitive deficits at all doses; also recorded: reversed the LPS-induced cognitive disruption
same,Spontaneous alternation (%) Mean,male CD-1 mice; Compound 5a 1.25 mg/kg p.o. daily 14 days,59%
same,Spontaneous alternation (%) Mean,"male CD-1 mice; Compound 5a 1.25 mg/kg p.o. daily 14 days, listed as Cmpd 5a",59.3%
same,Recovery (%),male CD-1 mice; Compound 5a 1.25 mg/kg p.o.,58%
same,Spontaneous alternation (%) Mean,male CD-1 mice; Compound 5a 2.5 mg/kg p.o. daily 14 days,58%
same,Spontaneous alternation (%) Mean,"male CD-1 mice; Compound 5a 2.5 mg/kg p.o. daily 14 days, listed as Cmpd 5a",57.9%
same,Recovery (%),male CD-1 mice; Compound 5a 2.5 mg/kg p.o.,53%
same,Spontaneous alternation (%) Mean,male CD-1 mice; Compound 5a 5 mg/kg p.o. daily 14 days,61%
same,Spontaneous alternation (%) Mean,"male CD-1 mice; Compound 5a 5 mg/kg p.o. daily 14 days, listed as Cmpd 5a",60.7%
same,Recovery (%),male CD-1 mice; Compound 5a 5 mg/kg p.o.,64%
same,Spontaneous alternation (%) Mean,male CD-1 mice; Compound 5a 10 mg/kg p.o. daily 14 days,58%
same,Spontaneous alternation (%) Mean,"male CD-1 mice; Compound 5a 10 mg/kg p.o. daily 14 days, listed as Cmpd 5a",57.9%
same,Recovery (%),male CD-1 mice; Compound 5a 10 mg/kg p.o.,53%
same,Spontaneous alternation (%) Mean,male CD-1 mice; Compound 5a 20 mg/kg p.o. daily 14 days,60%
same,Spontaneous alternation (%) Mean,"male CD-1 mice; Compound 5a 20 mg/kg p.o. daily 14 days, listed as Cmpd 5a",60.0%
same,Recovery (%),male CD-1 mice; Compound 5a 20 mg/kg p.o.,61%
same,Significance of neuroprotection vs 1 uM LPS,[1]; dose 0.1 nM,+++ (+++ indicates p<0.001)
same,Significance of neuroprotection vs 1 uM LPS,[1]; dose 1 nM,+++ (+++ indicates p<0.001)
same,Significance of neuroprotection vs 1 uM LPS,[1]; dose 10 nM,+++ (+++ indicates p<0.001)
same,Significance of neuroprotection vs 1 uM LPS,[1]; dose 100 nM,+++ (+++ indicates p<0.001)
same,Significance of neuroprotection vs 1 uM LPS,[1]; dose 1 μM,+++ (+++ indicates p<0.001)
"CCCCCC(=O)N[C@@H](Cc1ccc(O)cc1)C(=O)N[C@H](C(=O)NCCCCCC(N)=O)[C@@H](C)CC [Compound A19 active metabolite, dihexa] (Hexanoyl-Tyr-Ile-[Ahx]-NH2)",Statistical significance vs. insult control (cell viability),"[2]; Glutamate (25 uM) insult, [Compound A19 active metabolite] 0.1 nM + HGF (5 ng/ml)",+ (+ = p < 0.05)
same,Statistical significance vs. insult control (cell viability),"[2]; Glutamate (25 uM) insult, [Compound A19 active metabolite] 1 nM + HGF (5 ng/ml)",++ (++ = p < 0.01)
same,Statistical significance vs. insult control (cell viability),"[2]; Glutamate (25 uM) insult, [Compound A19 active metabolite] 100 nM (second column headed 100 nM) + HGF (5 ng/ml)",+ (+ = p < 0.05)
same,Statistical significance vs. insult control (cell viability),"[2]; Glutamate (25 uM) insult, [Compound A19 active metabolite] 100 nM + HGF (5 ng/ml)",+ (+ = p < 0.05)
same,Statistical significance vs. insult control (cell viability),"[2]; H2O2 (1 uM) insult, [Compound A19 active metabolite] 0.1 nM + HGF (5 ng/ml)",+++ (+++ = p < 0.001)
same,Statistical significance vs. insult control (cell viability),"[2]; H2O2 (1 uM) insult, [Compound A19 active metabolite] 1 nM + HGF (5 ng/ml)",+++ (+++ = p < 0.001)
same,Statistical significance vs. insult control (cell viability),"[2]; H2O2 (1 uM) insult, [Compound A19 active metabolite] 100 nM (second column headed 100 nM) + HGF (5 ng/ml)",+++ (+++ = p < 0.001)
same,Statistical significance vs. insult control (cell viability),"[2]; H2O2 (1 uM) insult, [Compound A19 active metabolite] 100 nM + HGF (5 ng/ml)",+++ (+++ = p < 0.001)
same,Statistical significance vs. insult control (cell viability),"[2]; H2O2 (1 uM) insult, [Compound A19 active metabolite] 1 uM + HGF (5 ng/ml)",+++ (+++ = p < 0.001)
same,Neuroprotection against the cohort of insults (result in words),"[2]; H2O2, glutamate, LPS, MPP+, broad range of concentrations",effective neuroprotective treatment at a broad range of concentrations against the entire cohort of insults tested
same,Statistical significance vs. insult control (cell viability),"[2]; LPS (1 uM) insult, [Compound A19 active metabolite] 0.1 nM + HGF (5 ng/ml)",++ (++ = p < 0.01)
same,Statistical significance vs. insult control (cell viability),"[2]; LPS (1 uM) insult, [Compound A19 active metabolite] 1 nM + HGF (5 ng/ml)",++ (++ = p < 0.01)
same,Statistical significance vs. insult control (cell viability),"[2]; LPS (1 uM) insult, [Compound A19 active metabolite] 100 nM (second column headed 100 nM) + HGF (5 ng/ml)",+++ (+++ = p < 0.001)
same,Statistical significance vs. insult control (cell viability),"[2]; LPS (1 uM) insult, [Compound A19 active metabolite] 100 nM + HGF (5 ng/ml)",++ (++ = p < 0.01)
same,Statistical significance vs. insult control (cell viability),"[2]; LPS (1 uM) insult, [Compound A19 active metabolite] 1 uM + HGF (5 ng/ml)",++ (++ = p < 0.01)
same,Statistical significance vs. insult control (cell viability),"[2]; MPP+ (500 uM) insult, [Compound A19 active metabolite] 0.1 nM + HGF (5 ng/ml)",+++ (+++ = p < 0.001)
same,Statistical significance vs. insult control (cell viability),"[2]; MPP+ (500 uM) insult, [Compound A19 active metabolite] 1 nM + HGF (5 ng/ml)",+++ (+++ = p < 0.001)
same,Statistical significance vs. insult control (cell viability),"[2]; MPP+ (500 uM) insult, [Compound A19 active metabolite] 100 nM (second column headed 100 nM) + HGF (5 ng/ml)",+++ (+++ = p < 0.001)
same,Statistical significance vs. insult control (cell viability),"[2]; MPP+ (500 uM) insult, [Compound A19 active metabolite] 100 nM + HGF (5 ng/ml)",+++ (+++ = p < 0.001)
same,Statistical significance vs. insult control (cell viability),"[2]; MPP+ (500 uM) insult, [Compound A19 active metabolite] 1 uM + HGF (5 ng/ml)",+++ (+++ = p < 0.001)
